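Method: 48-hour compound exposure of cells in 96-well plates, five concentrations, linear interpolation of endpoints. GI50 marks 50% less growth. TGI is the concentration that stops growth completely.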

What all share (assay): NCI tumour cell line growth inhibition, 48 h
Test [1] has as its system A498 renal.
Test [2] has as its system ACHN renal.
Test [3] relates to HL-60(TB) leukemia.
In test [4] the test system is HT29 colon.
Test [5] concerns K-562 leukemia.
Test [6] concerns MCF7 breast.
Test [7] has as its system NCI-H460 lung.
Test [8] concerns OVCAR-4 ovarian.
For test [9], the system named is RXF 393 renal.
For test [10], the system named is SF-268 CNS.

For the compound `Cc1nnc(Nc2ccc(NC(=O)Nc3ccc(Cl)cc3)cc2)c2ccccc12`, the GI50 in [1] is 3.21 µM; in test [2] it was 1.84 µM; in test [3] it was 2.03 µM; in test [4], 1.78 µM; in [5], 2.2 µM; in test [6], 2.21 µM. For the same compound, the GI50 is 3.46 µM in test [7], 2.79 µM in [8], 2.17 µM in test [9] and 2.57 µM in test [10]. Moreover, the TGI in test [1] was determined as 10.5 µM; in test [2], 3.69 µM; in [3] it was 4.19 µM; in test [4] it was 3.67 µM; in [5], 4.67 µM; in test [6] it was 10.9 µM. For the same compound, the TGI stood at 11.7 µM in test [7], 8.36 µM in test [8], 4.13 µM in [9] and 7.17 µM in test [10].

`COc1ccc(-c2ccc(=O)oc2C#Cc2cc(OC)c(OC)c(OC)c2)cc1O`: the GI50 was 2.36 µM in test [1]; 0.628 µM in [2]; 0.316 µM in test [3]; 1.25 µM in [4]; 0.129 µM in test [5]; 0.12 µM in test [6]. Also, the GI50 in test [7] was 0.287 µM; in test [8], 1.3 µM; in test [9], 0.0813 µM; in [10], 0.558 µM. The TGI in test [1] is 24.9 µM; in [2], above 62.1 µM; in test [3] it was above 100 µM; in test [4], 12.3 µM; in test [5], above 100 µM; in [6] it was above 100 µM. Moreover, the TGI in test [7] is 4.59 µM; in [8], above 100 µM; in test [9], 2.39 µM; in test [10] it was above 100 µM.

In the case of `COc1cc(N(CCC#N)CCC#N)ccc1/C(N=Nc1ccc(Cl)cc1)=N/NC(=O)c1cc(Br)ccc1O`, the GI50 in test [1] is above 150 µg/mL; in test [2] it was 86.1 µg/mL; in [3] it was 62.1 µg/mL; in [4], 45.5 µg/mL; in test [5] it was 86.4 µg/mL; in test [6] it was 44.1 µg/mL. Further, the GI50 was 53.6 µg/mL in test [7], 11.1 µg/mL in test [8], 36.9 µg/mL in test [9] and 35 µg/mL in test [10]. Besides, the TGI in test [1], in [2], in test [3], in [4], in [5] and in test [6] was above 150 µg/mL in each case. Moreover, the TGI is above 150 µg/mL in [7], 37 µg/mL in test [8], above 150 µg/mL in [9] and above 150 µg/mL in test [10].

As for `CC(NCCC(c1ccccc1)c1ccccc1)c1ccccc1` (stereo not given), the GI50 in [1] was 1.45 µM; in [2] it was 3.32 µM; in test [3], 2.13 µM; in test [4], 1.72 µM; in test [5], 2.42 µM; in test [6], 1.8 µM. The GI50 was 1.71 µM in test [7], 2.15 µM in test [8], 1.46 µM in [9] and 4.48 µM in test [10]. In addition, the TGI in [1] amounted to 3.93 µM; in test [2], 12 µM; in [3], 4.19 µM; in [4] it was 3.39 µM; in test [5], 5.23 µM; in [6] it was 3.63 µM. For the same compound, the TGI in [7] worked out at 3.26 µM; in [8] it was 6.66 µM; in [9], 3.23 µM; in [10] it was 17.5 µM.

`COc1cc(Cl)cc(-c2nn(-c3cccc(NC(=O)c4ccc(N5CCOCC5)c(C(F)(F)F)c4)c3)cc2-c2ccncc2)c1`: the GI50 is 16.2 µM in test [1]; 7.31 µM in test [2]; 4.19 µM in test [3]; 4.09 µM in test [4]; 3.1 µM in test [5]; 8.71 µM in test [6]. Moreover, the GI50 in [7] is 4.8 µM; in [8], 39.7 µM; in test [9], 0.83 µM; in test [10], above 100 µM. The TGI in test [1] was above 100 µM; in test [2] it was above 100 µM; in [3] it was 33.2 µM; in test [4], 38 µM; in test [5], above 100 µM; in test [6], above 100 µM. Moreover, the TGI is above 100 µM in [7], above 100 µM in test [8], 23.9 µM in [9] and above 100 µM in test [10].

For the compound `COc1ccc2nc3ccccc3c(NCc3ccc(F)cc3)c2c1`, the GI50 in test [1] was 1.62 µM; in test [2], 1.82 µM; in [3] it was 1.17 µM; in test [4], 1.48 µM; in test [5], 1.52 µM; in test [6], 1.17 µM. The GI50 in test [7] is 1.78 µM; in [8], 2.27 µM; in test [9], 1.13 µM; in [10] it was 2.2 µM. Also, the TGI in test [1] was found to be 5.74 µM; in [2], 6.68 µM; in test [3], 2.8 µM; in test [4], 5.19 µM; in [5], 6.94 µM; in test [6] it was 3.52 µM. Moreover, the TGI was 6.18 µM in test [7], 8.23 µM in test [8], 3.1 µM in test [9] and 8.71 µM in test [10].

Consider `O=C(Nc1ccc(Br)cc1F)c1cc(Cl)ccc1O`, for which the GI50 in test [1] was 0.16 µM; in test [2], 0.619 µM; in [3], 0.481 µM; in test [4], 3.09 µM; in [5], 0.489 µM; in test [6] it was 1.84 µM. The GI50 in test [7] is 0.487 µM; in test [8], 0.509 µM; in test [9] it was 0.852 µM; in test [10], 0.676 µM. Further, the TGI in test [1] is 0.604 µM; in test [2] it was above 31.3 µM; in test [3], 3.19 µM; in test [4], 31.5 µM; in test [5], above 50.7 µM; in [6], above 100 µM. Also, the TGI in [7] is above 66.5 µM; in test [8], above 100 µM; in test [9] it was 3.99 µM; in test [10], 9.96 µM.
